One experiment deals with T1, mTORC2 (Homo sapiens, UniProt P42345+P62942).
T1 construct: endogenous in cells; host or cells: PC3 cells (human prostate adenocarcinoma)
In words: Inhibition assay for mTORC2: phosphorylation of pAkt at Ser473, AlphaLISA SureFire in PC3 cells. It counts as cell-based. The settings on record: 24 hours treatment, analogs substituted at C40 and C16 (C16 diastereomer mixtures not isolated). As to the method:
The IC50s of the inhibition of mTORC1 and mTORC2 were determined in vitro by determining the phosphorylation of pS6K at position Thr389 (mTORC1 inhibition) and pAkt at Ser473 (mTORC2 inhibition). In vitro studies were performed with AiphaLISA® technology using PC3 cells (Prostate Adenocarcinoma; Human (Homo sapiens)). The cells were seeded in 96 well plates and were treated for 24 hours with the different compounds. […] All analysis were performed using GraphPad Prism 7.0 (GraphPad Software, San Diego, USA). […]
In general terms: In Alpha technology, singlet oxygen from a donor bead excites a nearby acceptor bead.

For another experiment, the target named is T2, mTORC1 (Homo sapiens, UniProt P42345+P62942).
T2 construct: endogenous in cells; host or cells: PC3 cells (human prostate adenocarcinoma)
Description: Inhibition assay for mTORC1: phosphorylation of pS6K at Thr389, AlphaLISA SureFire in PC3 cells. It counts as cell-based. As to the method: The IC50s of the inhibition of mTORC1 and mTORC2 were determined in vitro by determining the phosphorylation of pS6K at position Thr389 (mTORC1 inhibition) and pAkt at Ser473 (mTORC2 inhibition). In vitro studies were performed with AiphaLISA® technology using PC3 cells (Prostate Adenocarcinoma; Human (Homo sapiens)). The cells were seeded in 96 well plates and were treated for 24 hours with the different compounds. […] All analysis were performed using GraphPad Prism 7.0 (GraphPad Software, San Diego, USA).
Tables 5-7 include PIC50 values for mTORC1 of selected compounds; with compounds having an PIC50 for mTORC1 of >9.5 as A, 8.5 to 9.5 as B, and less than 8.5 as C.

Setting [1] is: PC3 cells, read-out: pIC50 mTORC2 (converted).
The mark [2] stands for this setting: PC3 cells, 24 hours treatment, pS6K Thr389, analogs substituted at C40 and C16 (C16 diastereomer mixtures not isolated), read-out: pIC50 mTORC1 (converted).

SMILES strings stand for the structures. Like-named read-outs stand apart in the source and are kept apart here. Bounds are passed on as bounds.

Consider `CO[C@@H]1C[C@H](C[C@@H](C)[C@@H]2CC(=O)[C@H](C)/C=C(\C)[C@@H](O)[C@@H](OC)C(=O)[C@H](C)C[C@H](C)/C=C/C=C/C=C(\C)C(OCCO)C[C@@H]3CC[C@@H](C)[C@@](O)(O3)C(=O)C(=O)N3CCCC[C@H]3C(=O)O2)CC[C@H]1OCCCN1CCO[C@H](C)C1` (mixture of isomers) [Compound 13], for which the IC50 on mTORC2 (setting [1]) was above 10 µM.
With `COCCOCCOC1C[C@@H]2CC[C@@H](C)[C@@](O)(O2)C(=O)C(=O)N2CCCC[C@H]2C(=O)O[C@H]([C@H](C)C[C@@H]2CC[C@@H](OCCCO)[C@H](OC)C2)CC(=O)[C@H](C)/C=C(\C)[C@@H](O)[C@@H](OC)C(=O)[C@H](C)C[C@H](C)/C=C/C=C/C=C/1C` (mixture of isomers) [Compound 17], the IC50 on mTORC2 (pIC50 mTORC2, PC3 cells) was above 10 µM; at mTORC1, below 0.000316 µM.
As for `CO[C@@H]1C[C@H](C[C@@H](C)[C@@H]2CC(=O)[C@H](C)/C=C(\C)[C@@H](O)[C@@H](OC)C(=O)[C@H](C)C[C@H](C)/C=C/C=C/C=C(\C)C(OCCCCO)C[C@@H]3CC[C@@H](C)[C@@](O)(O3)C(=O)C(=O)N3CCCC[C@H]3C(=O)O2)CC[C@H]1OCCCO` (mixture of isomers) [Compound 68], the figures for the IC50 at mTORC2 (setting [1]) and on mTORC1 (setting [2]) were 1 to 10 µM and below 0.000316 µM, respectively.
On the same counts, the results for `COCCCO[C@@H]1CC[C@@H](C[C@@H](C)[C@@H]2CC(=O)[C@H](C)/C=C(\C)[C@@H](O)[C@@H](OC)C(=O)[C@H](C)C[C@H](C)/C=C/C=C/C=C(\C)C(OCCO)C[C@@H]3CC[C@@H](C)[C@@](O)(O3)C(=O)C(=O)N3CCCCC3C(=O)O2)C[C@H]1OC` (stereo partly drawn) [Compound 3] are above 10 µM and below 0.000316 µM.
On the same counts, the results for `CO[C@@H]1C[C@H](C[C@@H](C)[C@@H]2CC(=O)[C@H](C)/C=C(\C)[C@@H](O)[C@@H](OC)C(=O)[C@H](C)C[C@H](C)/C=C/C=C/C=C(\C)C(OCCO)C[C@@H]3CC[C@@H](C)[C@@](O)(O3)C(=O)C(=O)N3CCCCC3C(=O)O2)CC[C@H]1OCCN1CCOCC1` (stereo partly drawn) [Compound 8] are above 10 µM and below 0.000316 µM.
As for `CO[C@@H]1C[C@H](C[C@@H](C)[C@@H]2CC(=O)[C@H](C)/C=C(\C)[C@@H](O)[C@@H](OC)C(=O)[C@H](C)C[C@H](C)/C=C/C=C/C=C(\C)C(OCCO)C[C@@H]3CC[C@@H](C)[C@@](O)(O3)C(=O)C(=O)N3CCCCC3C(=O)O2)CC[C@H]1OCCO` (stereo partly drawn) [Compound 9], the IC50 on mTORC2 (setting [1]) is above 10 µM; at mTORC1 (setting [2]), below 0.000316 µM.
In the same order, the values of `CO[C@@H]1C[C@H](C[C@@H](C)[C@@H]2CC(=O)[C@H](C)/C=C(\C)[C@@H](O)[C@@H](OC)C(=O)[C@H](C)C[C@H](C)/C=C/C=C/C=C(\C)C(OCCO)C[C@@H]3CC[C@@H](C)[C@@](O)(O3)C(=O)C(=O)N3CCCCC3C(=O)O2)CC[C@H]1OCCCO` (stereo partly drawn) [Compound 10] are above 10 µM and below 0.000316 µM.
As to `COCCOC1C[C@@H]2CC[C@@H](C)[C@@](O)(O2)C(=O)C(=O)N2CCCCC2C(=O)O[C@H]([C@H](C)C[C@@H]2CC[C@@H](OC)[C@H](OC)C2)CC(=O)[C@H](C)/C=C(\C)[C@@H](O)[C@@H](OC)C(=O)[C@H](C)C[C@H](C)/C=C/C=C/C=C/1C` (stereo partly drawn) [Compound 11], the IC50 on mTORC2 (setting [1]) is above 10 µM; on mTORC1 (setting [2]), below 0.000316 µM.
On the same counts, the results for `CO[C@@H]1C[C@H](C[C@@H](C)[C@@H]2CC(=O)[C@H](C)/C=C(\C)[C@@H](O)[C@@H](OC)C(=O)[C@H](C)C[C@H](C)/C=C/C=C/C=C(\C)C(OCCO)C[C@@H]3CC[C@@H](C)[C@@](O)(O3)C(=O)C(=O)N3CCCCC3C(=O)O2)CC[C@H]1OCCCN1CCOC(C)(C)C1` (stereo partly drawn) [Compound 12] are above 10 µM and below 0.000316 µM.
In the same order, the values of `COCCCO[C@@H]1CC[C@@H](C[C@@H](C)[C@@H]2CC(=O)[C@H](C)/C=C(\C)[C@@H](O)[C@@H](OC)C(=O)[C@H](C)C[C@H](C)/C=C/C=C/C=C(\C)C(OCCOC)C[C@@H]3CC[C@@H](C)[C@@](O)(O3)C(=O)C(=O)N3CCCCC3C(=O)O2)C[C@H]1OC` (stereo partly drawn) [Compound 14] are above 10 µM and below 0.000316 µM.
In the same order, the values of `CO[C@@H]1C[C@H](C[C@@H](C)[C@@H]2CC(=O)[C@H](C)/C=C(\C)[C@@H](O)[C@@H](OC)C(=O)[C@H](C)C[C@H](C)/C=C/C=C/C=C(\C)C(OCCCO)C[C@@H]3CC[C@@H](C)[C@@](O)(O3)C(=O)C(=O)N3CCCCC3C(=O)O2)CC[C@H]1OCCO` (stereo partly drawn) [Compound 15] are above 10 µM and below 0.000316 µM.
`CO[C@@H]1C[C@H](C[C@@H](C)[C@@H]2CC(=O)[C@H](C)/C=C(\C)[C@@H](O)[C@@H](OC)C(=O)[C@H](C)C[C@H](C)/C=C/C=C/C=C(\C)C(OCCO)C[C@@H]3CC[C@@H](C)[C@@](O)(O3)C(=O)C(=O)N3CCCCC3C(=O)O2)CC[C@H]1OCCCN1C[C@@H](C)O[C@@H](C)C1` (stereo partly drawn) [Compound 18]: the values for the IC50 on mTORC2 (setting [1]) and on mTORC1 (setting [2]) were above 10 µM and below 0.000316 µM, respectively.
In the same order, the values of `CO[C@@H]1CC[C@@H](C[C@@H](C)[C@@H]2CC(=O)[C@H](C)/C=C(\C)[C@@H](O)[C@@H](OC)C(=O)[C@H](C)C[C@H](C)/C=C/C=C/C=C(\C)C(OCCCO)C[C@@H]3CC[C@@H](C)[C@@](O)(O3)C(=O)C(=O)N3CCCCC3C(=O)O2)C[C@H]1OC` (stereo partly drawn) [Compound 19] are above 10 µM and below 0.000316 µM.
`COCCOCCOC1C[C@@H]2CC[C@@H](C)[C@@](O)(O2)C(=O)C(=O)N2CCCCC2C(=O)O[C@H]([C@H](C)C[C@@H]2CC[C@@H](OCCO)[C@H](OC)C2)CC(=O)[C@H](C)/C=C(\C)[C@@H](O)[C@@H](OC)C(=O)[C@H](C)C[C@H](C)/C=C/C=C/C=C/1C` (stereo partly drawn) [Compound 20]: the IC50 at mTORC2 (setting [1]) was above 10 µM; at mTORC1 (setting [2]), below 0.000316 µM.
With `COCCCO[C@@H]1CC[C@@H](C[C@@H](C)[C@@H]2CC(=O)[C@H](C)/C=C(\C)[C@@H](O)[C@@H](OC)C(=O)[C@H](C)C[C@H](C)/C=C/C=C/C=C(\C)C(OCCOCCOC)C[C@@H]3CC[C@@H](C)[C@@](O)(O3)C(=O)C(=O)N3CCCCC3C(=O)O2)C[C@H]1OC` (stereo partly drawn) [Compound 23], the IC50 was above 10 µM on mTORC2 (setting [1]) and below 0.000316 µM at mTORC1 (setting [2]).
In the same order, the values of `CO[C@@H]1CC[C@@H](C[C@@H](C)[C@@H]2CC(=O)[C@H](C)/C=C(\C)[C@@H](O)[C@@H](OC)C(=O)[C@H](C)C[C@H](C)/C=C/C=C/C=C(\C)C(OCCCCO)C[C@@H]3CC[C@@H](C)[C@@](O)(O3)C(=O)C(=O)N3CCCCC3C(=O)O2)C[C@H]1OC` (stereo partly drawn) [Compound 24] are above 10 µM and below 0.000316 µM.
On the same counts, the results for `COCCOC1C[C@@H]2CC[C@@H](C)[C@@](O)(O2)C(=O)C(=O)N2CCCCC2C(=O)O[C@H]([C@H](C)C[C@@H]2CC[C@@H](OC(=O)N(C)CCN3CCOCC3)[C@H](OC)C2)CC(=O)[C@H](C)/C=C(\C)[C@@H](O)[C@@H](OC)C(=O)[C@H](C)C[C@H](C)/C=C/C=C/C=C/1C` (stereo partly drawn) [Compound 25] are 1 to 10 µM and below 0.000316 µM.
In the same order, the values of `COCCOC1C[C@@H]2CC[C@@H](C)[C@@](O)(O2)C(=O)C(=O)N2CCCCC2C(=O)O[C@H]([C@H](C)C[C@@H]2CC[C@@H](OCCCO)[C@H](OC)C2)CC(=O)[C@H](C)/C=C(\C)[C@@H](O)[C@@H](OC)C(=O)[C@H](C)C[C@H](C)/C=C/C=C/C=C/1C` (stereo partly drawn) [Compound 28] are 1 to 10 µM and below 0.000316 µM.
Turning to `COCCOC1C[C@@H]2CC[C@@H](C)[C@@](O)(O2)C(=O)C(=O)N2CCCCC2C(=O)O[C@H]([C@H](C)C[C@@H]2CC[C@@H](OCCOC)[C@H](OC)C2)CC(=O)[C@H](C)/C=C(\C)[C@@H](O)[C@@H](OC)C(=O)[C@H](C)C[C@H](C)/C=C/C=C/C=C/1C` (stereo partly drawn) [Compound 29], the IC50 at mTORC2 (setting [1]) is above 10 µM; on mTORC1 (setting [2]), below 0.000316 µM.
For the compound `COCCOC1C[C@@H]2CC[C@@H](C)[C@@](O)(O2)C(=O)C(=O)N2CCCCC2C(=O)O[C@H]([C@H](C)C[C@@H]2CC[C@@H](OC(=O)NCCN3CCOCC3)[C@H](OC)C2)CC(=O)[C@H](C)/C=C(\C)[C@@H](O)[C@@H](OC)C(=O)[C@H](C)C[C@H](C)/C=C/C=C/C=C/1C` (stereo partly drawn) [Compound 30], the figures for the IC50 at mTORC2 (setting [1]) and at mTORC1 (setting [2]) were 1 to 10 µM and below 0.000316 µM, respectively.
In the same order, the values of `COCCCOC1C[C@@H]2CC[C@@H](C)[C@@](O)(O2)C(=O)C(=O)N2CCCCC2C(=O)O[C@H]([C@H](C)C[C@@H]2CC[C@@H](OCCO)[C@H](OC)C2)CC(=O)[C@H](C)/C=C(\C)[C@@H](O)[C@@H](OC)C(=O)[C@H](C)C[C@H](C)/C=C/C=C/C=C/1C` (stereo partly drawn) [Compound 31] are 1 to 10 µM and below 0.000316 µM.
In the case of `CO[C@@H]1C[C@H](C[C@@H](C)[C@@H]2CC(=O)[C@H](C)/C=C(\C)[C@@H](O)[C@@H](OC)C(=O)[C@H](C)C[C@H](C)/C=C/C=C/C=C(\C)C(OCCO)C[C@@H]3CC[C@@H](C)[C@@](O)(O3)C(=O)C(=O)N3CCCCC3C(=O)O2)CC[C@H]1OCCCN1CCO[C@H](C)C1` (stereo partly drawn) [Compound 43], the IC50 at mTORC2 (setting [1]) was 1 to 10 µM.

The record behind these values is patent US12565505B2, “mTORC modulators and uses thereof” (Aeovian Pharmaceuticals, Inc., priority 2019, dated 2026).
